Test results taken from patent US20100298141A1, “SUBSTITUTED PYRIDINE N-OXIDE HERBICIDES” (E. I. DU PONT DE NEMOURS AND COMPANY, priority 2007, published 2010).

Experiments:
duck salad = assay: Test C flooded paddy test; type: in vivo, Heteranthera limosa; details: Flood
How it was run: (§1)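 Pots were flooded to 3 cm above the soil surface at treatment, compound applied directly to the paddy water, and that depth held throughout. Plants were kept in a greenhouse for 13 to 15 days, then visually rated against untreated controls.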

redroot pigweed = assay: Test A pre-/postemergence greenhouse test; type: in vivo, Amaranthus retroflexus; details: for Plant response rating, Pigweed: 0 to 100 scale where 0 is no effect and 100 is complete control; for Pigweed plant response rating: 0 to 100 scale
How it was run: (§2)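 Visual injury ratings against untreated controls, taken roughly ten days after treatment in greenhouse. Plants were sprayed postemergence at one- to two-leaf stage (2–10 cm tall); at the same time, seeded loam/sand soil received a directed preemergence spray. Formulation: non-phytotoxic solvent mixture with surfactant.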

umbrella sedge = assay: Test C flooded paddy test; type: in vivo, Cyperus difformis; details: Flood
How it was run: as §1

wheat = assay: Test A pre-/postemergence greenhouse test; type: in vivo, Triticum aestivum; details: for Plant response rating, Wheat: 0 to 100 scale where 0 is no effect and 100 is complete control; for Wheat plant response rating: 0 to 100 scale
How it was run: as §2

velvetleaf = assay: Test A pre-/postemergence greenhouse test; type: in vivo, Abutilon theophrasti; details: for Plant response rating, Velvetleaf: 0 to 100 scale where 0 is no effect and 100 is complete control; for Velvetleaf plant response rating: 0 to 100 scale
How it was run: as §2

crabgrass = assay: Test A pre-/postemergence greenhouse test; type: in vivo, Digitaria sanguinalis; details: for Plant response rating, Crabgrass, Large: 0 to 100 scale where 0 is no effect and 100 is complete control; for Crabgrass, Large plant response rating: 0 to 100 scale
How it was run: as §2

barnyardgrass [1] = assay: Test A pre-/postemergence greenhouse test; type: in vivo, Echinochloa crus-galli; details: for Plant response rating, Barnyardgrass: 0 to 100 scale where 0 is no effect and 100 is complete control; for Barnyardgrass plant response rating: 0 to 100 scale
How it was run: as §2

corn = assay: Test A pre-/postemergence greenhouse test; type: in vivo, Zea mays; details: for Plant response rating, Corn: 0 to 100 scale where 0 is no effect and 100 is complete control; for Corn plant response rating: 0 to 100 scale
How it was run: as §2

rice = assay: Test C flooded paddy test; type: in vivo, Oryza sativa; details: Flood
How it was run: as §1

barnyardgrass [2] = assay: Test C flooded paddy test; type: in vivo, Echinochloa crus-galli; details: Flood
How it was run: as §1

giant foxtail = assay: Test A pre-/postemergence greenhouse test; type: in vivo, Setaria faberi; details: for Plant response rating, Foxtail, Giant: 0 to 100 scale where 0 is no effect and 100 is complete control; for Foxtail, Giant plant response rating: 0 to 100 scale
How it was run: as §2

morningglory = assay: Test A pre-/postemergence greenhouse test; type: in vivo, Ipomoea spp.; details: for Plant response rating, Morningglory: 0 to 100 scale where 0 is no effect and 100 is complete control; for Morningglory plant response rating: 0 to 100 scale
How it was run: as §2

[3] = 31 g ai/ha, scale 0 to 100 (0 no effect, 100 complete control)
[4] = 62 g ai/ha, scale 0 to 100 (0 no effect, 100 complete control)
[5] = 125 g ai/ha, scale 0 to 100, 0 no effect, 100 complete control, 13 to 15 days
[6] = 250 g ai/ha, scale 0 to 100, 0 no effect, 100 complete control, 13 to 15 days
[7] = Postemergence, 500 g ai/ha, 0 is no effect, 100 is complete control
[8] = Preemergence, 125 g ai/ha, 0 no effect, 100 complete control
[9] = Preemergence, 500 g ai/ha, 0 no effect, 100 complete control
[10] = 62 g ai/ha, scale 0 to 100, 0 no effect, 100 complete control, 13 to 15 days
[11] = Postemergence, 125 g ai/ha, 0 is no effect, 100 is complete control
[12] = 250 g ai/ha, scale 0 to 100 (0 no effect, 100 complete control)

Cn1nc(C(F)(F)F)c(CS(=O)(=O)c2ccc(F)c[n+]2[O-])c1OC(F)F [Compound 107]
50: Pigweed plant response rating (redroot pigweed; [7]) | Morningglory plant response rating (morningglory; [7])
70: Plant response rating, Crabgrass, Large (crabgrass; Postemergence, 125 g ai/ha) | Barnyardgrass plant response rating (barnyardgrass [1]; [8]) | Plant response rating, Foxtail, Giant (giant foxtail; Postemergence, 125 g ai/ha)
90: Barnyardgrass plant response rating (barnyardgrass [1]; [9]) | Foxtail, Giant plant response rating (giant foxtail; [9])
20: Plant response rating, Sedge, Umbrella (umbrella sedge; [6]) | Plant response rating, Barnyardgrass (barnyardgrass [2]; [5])
0: Plant response rating, Ducksalad (duck salad; [3]) | Plant response rating, Ducksalad (duck salad; [4]) | Plant response rating, Ducksalad (duck salad; [5]) | Plant response rating, Sedge, Umbrella (umbrella sedge; [3]) | Plant response rating, Sedge, Umbrella (umbrella sedge; [4]) | Plant response rating, Sedge, Umbrella (umbrella sedge; [5]) | Plant response rating, Wheat (wheat; Postemergence, 125 g ai/ha) | Wheat plant response rating (wheat; [7]) | Wheat plant response rating (wheat; [8]) | Wheat plant response rating (wheat; [9]) | Plant response rating, Velvetleaf (velvetleaf; Postemergence, 125 g ai/ha) | Velvetleaf plant response rating (velvetleaf; [7]) | Velvetleaf plant response rating (velvetleaf; [8]) | Plant response rating, Corn (corn; Postemergence, 125 g ai/ha) | Corn plant response rating (corn; [7]) | Corn plant response rating (corn; [8]) | Corn plant response rating (corn; [9]) | Plant response rating, Rice (rice; [3]) | Plant response rating, Rice (rice; [4]) | Plant response rating, Rice (rice; [5]) | Plant response rating, Rice (rice; [6]) | Plant response rating, Barnyardgrass (barnyardgrass [2]; [3]) | Plant response rating, Barnyardgrass (barnyardgrass [2]; [4]) | Plant response rating, Morningglory (morningglory; Postemergence, 125 g ai/ha) | Morningglory plant response rating (morningglory; [8])
40: Plant response rating, Pigweed (redroot pigweed; Postemergence, 125 g ai/ha) | Pigweed plant response rating (redroot pigweed; [8]) | Plant response rating, Barnyardgrass (barnyardgrass [1]; Postemergence, 125 g ai/ha) | Plant response rating, Barnyardgrass (barnyardgrass [2]; [6])
65: Plant response rating, Ducksalad (duck salad; [6])
10: Velvetleaf plant response rating (velvetleaf; [9])
80: Crabgrass, Large plant response rating (crabgrass; [7]) | Crabgrass, Large plant response rating (crabgrass; [9]) | Foxtail, Giant plant response rating (giant foxtail; [7])
60: Pigweed plant response rating (redroot pigweed; [9]) | Crabgrass, Large plant response rating (crabgrass; [8]) | Barnyardgrass plant response rating (barnyardgrass [1]; [7]) | Foxtail, Giant plant response rating (giant foxtail; [8]) | Morningglory plant response rating (morningglory; [9])

Cc1cc[n+]([O-])c([S+]([O-])C(C)c2c(C(F)(F)F)nn(C)c2Cl)c1 (mixture of isomers) [Compound 15]
80: Plant response rating, Ducksalad (duck salad; [10]) | Plant response rating, Ducksalad (duck salad; [5])
85: Plant response rating, Sedge, Umbrella (umbrella sedge; [3]) | Plant response rating, Sedge, Umbrella (umbrella sedge; [10]) | Plant response rating, Sedge, Umbrella (umbrella sedge; [5])
0: Pigweed plant response rating (redroot pigweed; [11]) | Pigweed plant response rating (redroot pigweed; [7]) | Plant response rating, Pigweed (redroot pigweed; Preemergence, 500 g ai/ha) | Wheat plant response rating (wheat; [11]) | Wheat plant response rating (wheat; [7]) | Wheat plant response rating (wheat; [8]) | Plant response rating, Wheat (wheat; Preemergence, 500 g ai/ha) | Velvetleaf plant response rating (velvetleaf; [11]) | Velvetleaf plant response rating (velvetleaf; [7]) | Velvetleaf plant response rating (velvetleaf; [8]) | Plant response rating, Velvetleaf (velvetleaf; Preemergence, 500 g ai/ha) | Crabgrass, Large plant response rating (crabgrass; [11]) | Crabgrass, Large plant response rating (crabgrass; [7]) | Crabgrass, Large plant response rating (crabgrass; [8]) | Barnyardgrass plant response rating (barnyardgrass [1]; [11]) | Barnyardgrass plant response rating (barnyardgrass [1]; [7]) | Barnyardgrass plant response rating (barnyardgrass [1]; [8]) | Plant response rating, Barnyardgrass (barnyardgrass [1]; Preemergence, 500 g ai/ha) | Corn plant response rating (corn; [11]) | Corn plant response rating (corn; [7]) | Corn plant response rating (corn; [8]) | Plant response rating, Corn (corn; Preemergence, 500 g ai/ha) | Plant response rating, Rice (rice; [3]) | Plant response rating, Rice (rice; [10]) | Plant response rating, Rice (rice; [5]) | Plant response rating, Rice (rice; [12]) | Foxtail, Giant plant response rating (giant foxtail; [11]) | Foxtail, Giant plant response rating (giant foxtail; [7]) | Foxtail, Giant plant response rating (giant foxtail; [8]) | Plant response rating, Foxtail, Giant (giant foxtail; Preemergence, 500 g ai/ha) | Morningglory plant response rating (morningglory; [11]) | Morningglory plant response rating (morningglory; [7]) | Morningglory plant response rating (morningglory; [8]) | Plant response rating, Morningglory (morningglory; Preemergence, 500 g ai/ha)
20: Plant response rating, Ducksalad (duck salad; [3]) | Plant response rating, Crabgrass, Large (crabgrass; Preemergence, 500 g ai/ha) | Plant response rating, Barnyardgrass (barnyardgrass [2]; [3]) | Plant response rating, Barnyardgrass (barnyardgrass [2]; [10]) | Plant response rating, Barnyardgrass (barnyardgrass [2]; [5]) | Plant response rating, Barnyardgrass (barnyardgrass [2]; [12])
